# According to US20190330224A1, “ACC INHIBITORS AND USES THEREOF” (Gilead Apollo, LLC, priority 2015, published 2019):
# Legend:
# [1] = system: C. albicans ATCC 90028; test: Anti-Fungal Activity Assay (broth microtiter MIC), C. albicans; format: cell-based, Candida albicans; settings: Candida albicans, ATCC90028, 48 h, 3 replicates; MIC recorded at 48 h; read-out: MIC C. albicans ATCC 90028
# In short: (§1)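 Susceptibility testing used direct colony suspensions in RPMI 1640+MOPS from Sabouraud dextrose agar grown at 35° C. Endpoints were visual MICs at 48 h under CLSI M27-A3 microtiter conditions, plus a 24 h reading for soraphen.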
# [2] = system: C. parapsilosis ATCC 22019; test: Anti-Fungal Activity Assay (broth microtiter MIC), C. parapsilosis; format: cell-based, Candida parapsilosis; settings: Lodderomyces parapsilosis, ATCC22019, 48 h, 3 replicates; MIC recorded at 48 h; read-out: MIC C. parapsilosis ATCC 22019
# In short: as §1
# [3] = target: Human ACC2 (Homo sapiens, UniProt O00763); test: In vitro ACC2 inhibition assay (ADP-Glo), human ACC2; format: biochemical; settings: 5 nM ACC2, 20 μM ATP, 20 μM acetyl-CoA
# Chain of Human ACC2 (O00763 whole entry): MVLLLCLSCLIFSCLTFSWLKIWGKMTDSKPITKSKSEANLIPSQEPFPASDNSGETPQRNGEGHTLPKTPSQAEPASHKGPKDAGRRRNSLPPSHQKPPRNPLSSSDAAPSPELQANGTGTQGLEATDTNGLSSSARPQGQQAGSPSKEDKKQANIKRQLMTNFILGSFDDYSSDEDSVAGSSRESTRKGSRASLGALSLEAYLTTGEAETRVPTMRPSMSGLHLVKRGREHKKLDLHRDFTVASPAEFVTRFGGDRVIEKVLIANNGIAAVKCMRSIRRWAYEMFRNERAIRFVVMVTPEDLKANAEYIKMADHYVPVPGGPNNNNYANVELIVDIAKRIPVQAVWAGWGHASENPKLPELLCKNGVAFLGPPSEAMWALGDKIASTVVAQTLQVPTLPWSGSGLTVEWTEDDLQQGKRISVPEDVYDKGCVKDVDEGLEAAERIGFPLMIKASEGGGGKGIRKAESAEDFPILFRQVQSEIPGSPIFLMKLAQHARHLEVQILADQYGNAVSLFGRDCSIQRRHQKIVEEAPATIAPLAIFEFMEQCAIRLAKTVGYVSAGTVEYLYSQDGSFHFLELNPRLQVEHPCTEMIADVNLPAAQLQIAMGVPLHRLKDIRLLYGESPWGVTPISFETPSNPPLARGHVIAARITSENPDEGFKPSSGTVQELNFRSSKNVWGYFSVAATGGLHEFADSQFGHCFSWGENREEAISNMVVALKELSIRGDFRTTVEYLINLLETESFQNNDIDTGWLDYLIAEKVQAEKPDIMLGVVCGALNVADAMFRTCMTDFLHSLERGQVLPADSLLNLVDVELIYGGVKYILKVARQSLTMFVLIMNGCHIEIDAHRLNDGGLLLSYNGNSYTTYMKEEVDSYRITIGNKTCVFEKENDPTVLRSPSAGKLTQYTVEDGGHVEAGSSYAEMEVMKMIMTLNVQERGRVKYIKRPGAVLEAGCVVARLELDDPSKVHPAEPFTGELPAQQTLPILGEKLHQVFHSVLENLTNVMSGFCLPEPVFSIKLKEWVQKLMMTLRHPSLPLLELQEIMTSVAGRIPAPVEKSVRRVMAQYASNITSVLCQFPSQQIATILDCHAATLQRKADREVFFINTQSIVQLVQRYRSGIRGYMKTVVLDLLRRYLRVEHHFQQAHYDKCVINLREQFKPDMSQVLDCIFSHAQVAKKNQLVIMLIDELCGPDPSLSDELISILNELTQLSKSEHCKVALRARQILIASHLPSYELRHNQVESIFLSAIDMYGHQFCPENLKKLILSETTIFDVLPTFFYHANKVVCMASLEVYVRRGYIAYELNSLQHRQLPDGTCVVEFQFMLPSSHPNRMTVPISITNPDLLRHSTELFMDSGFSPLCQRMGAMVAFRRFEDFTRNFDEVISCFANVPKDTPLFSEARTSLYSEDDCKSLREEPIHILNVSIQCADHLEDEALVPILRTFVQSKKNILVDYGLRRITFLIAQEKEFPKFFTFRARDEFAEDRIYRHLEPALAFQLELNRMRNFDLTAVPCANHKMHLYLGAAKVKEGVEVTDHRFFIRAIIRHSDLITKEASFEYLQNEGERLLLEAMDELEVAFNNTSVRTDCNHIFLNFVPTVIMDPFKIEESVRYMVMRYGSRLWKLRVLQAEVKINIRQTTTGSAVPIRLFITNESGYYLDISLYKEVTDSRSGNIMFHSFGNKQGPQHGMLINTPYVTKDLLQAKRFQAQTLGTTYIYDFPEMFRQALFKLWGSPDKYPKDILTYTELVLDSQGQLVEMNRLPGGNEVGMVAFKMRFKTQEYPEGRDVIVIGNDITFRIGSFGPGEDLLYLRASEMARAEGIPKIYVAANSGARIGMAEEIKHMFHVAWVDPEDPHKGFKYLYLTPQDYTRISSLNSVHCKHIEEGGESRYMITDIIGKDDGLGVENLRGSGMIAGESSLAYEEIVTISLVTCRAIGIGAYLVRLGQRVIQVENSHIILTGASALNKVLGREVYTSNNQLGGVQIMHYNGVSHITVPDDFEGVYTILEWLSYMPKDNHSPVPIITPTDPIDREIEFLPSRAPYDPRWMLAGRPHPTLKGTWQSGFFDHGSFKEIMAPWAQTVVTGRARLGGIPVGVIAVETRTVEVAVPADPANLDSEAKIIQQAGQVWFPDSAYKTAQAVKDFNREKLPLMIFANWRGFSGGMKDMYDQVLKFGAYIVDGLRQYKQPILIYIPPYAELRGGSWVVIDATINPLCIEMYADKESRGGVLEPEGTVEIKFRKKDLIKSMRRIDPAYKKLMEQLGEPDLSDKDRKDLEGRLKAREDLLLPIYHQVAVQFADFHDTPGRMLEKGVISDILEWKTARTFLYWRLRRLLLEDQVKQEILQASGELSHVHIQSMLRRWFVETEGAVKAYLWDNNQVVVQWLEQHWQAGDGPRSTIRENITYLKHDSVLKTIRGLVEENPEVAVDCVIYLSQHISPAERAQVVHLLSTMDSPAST
# [4] = target: Fungal ACC2 (UniProt Q00955); settings: read-out: Fungal ACC2 (IC50, in vitro ACC2 inhibition)
# Chain of Fungal ACC2 (Q00955 whole entry): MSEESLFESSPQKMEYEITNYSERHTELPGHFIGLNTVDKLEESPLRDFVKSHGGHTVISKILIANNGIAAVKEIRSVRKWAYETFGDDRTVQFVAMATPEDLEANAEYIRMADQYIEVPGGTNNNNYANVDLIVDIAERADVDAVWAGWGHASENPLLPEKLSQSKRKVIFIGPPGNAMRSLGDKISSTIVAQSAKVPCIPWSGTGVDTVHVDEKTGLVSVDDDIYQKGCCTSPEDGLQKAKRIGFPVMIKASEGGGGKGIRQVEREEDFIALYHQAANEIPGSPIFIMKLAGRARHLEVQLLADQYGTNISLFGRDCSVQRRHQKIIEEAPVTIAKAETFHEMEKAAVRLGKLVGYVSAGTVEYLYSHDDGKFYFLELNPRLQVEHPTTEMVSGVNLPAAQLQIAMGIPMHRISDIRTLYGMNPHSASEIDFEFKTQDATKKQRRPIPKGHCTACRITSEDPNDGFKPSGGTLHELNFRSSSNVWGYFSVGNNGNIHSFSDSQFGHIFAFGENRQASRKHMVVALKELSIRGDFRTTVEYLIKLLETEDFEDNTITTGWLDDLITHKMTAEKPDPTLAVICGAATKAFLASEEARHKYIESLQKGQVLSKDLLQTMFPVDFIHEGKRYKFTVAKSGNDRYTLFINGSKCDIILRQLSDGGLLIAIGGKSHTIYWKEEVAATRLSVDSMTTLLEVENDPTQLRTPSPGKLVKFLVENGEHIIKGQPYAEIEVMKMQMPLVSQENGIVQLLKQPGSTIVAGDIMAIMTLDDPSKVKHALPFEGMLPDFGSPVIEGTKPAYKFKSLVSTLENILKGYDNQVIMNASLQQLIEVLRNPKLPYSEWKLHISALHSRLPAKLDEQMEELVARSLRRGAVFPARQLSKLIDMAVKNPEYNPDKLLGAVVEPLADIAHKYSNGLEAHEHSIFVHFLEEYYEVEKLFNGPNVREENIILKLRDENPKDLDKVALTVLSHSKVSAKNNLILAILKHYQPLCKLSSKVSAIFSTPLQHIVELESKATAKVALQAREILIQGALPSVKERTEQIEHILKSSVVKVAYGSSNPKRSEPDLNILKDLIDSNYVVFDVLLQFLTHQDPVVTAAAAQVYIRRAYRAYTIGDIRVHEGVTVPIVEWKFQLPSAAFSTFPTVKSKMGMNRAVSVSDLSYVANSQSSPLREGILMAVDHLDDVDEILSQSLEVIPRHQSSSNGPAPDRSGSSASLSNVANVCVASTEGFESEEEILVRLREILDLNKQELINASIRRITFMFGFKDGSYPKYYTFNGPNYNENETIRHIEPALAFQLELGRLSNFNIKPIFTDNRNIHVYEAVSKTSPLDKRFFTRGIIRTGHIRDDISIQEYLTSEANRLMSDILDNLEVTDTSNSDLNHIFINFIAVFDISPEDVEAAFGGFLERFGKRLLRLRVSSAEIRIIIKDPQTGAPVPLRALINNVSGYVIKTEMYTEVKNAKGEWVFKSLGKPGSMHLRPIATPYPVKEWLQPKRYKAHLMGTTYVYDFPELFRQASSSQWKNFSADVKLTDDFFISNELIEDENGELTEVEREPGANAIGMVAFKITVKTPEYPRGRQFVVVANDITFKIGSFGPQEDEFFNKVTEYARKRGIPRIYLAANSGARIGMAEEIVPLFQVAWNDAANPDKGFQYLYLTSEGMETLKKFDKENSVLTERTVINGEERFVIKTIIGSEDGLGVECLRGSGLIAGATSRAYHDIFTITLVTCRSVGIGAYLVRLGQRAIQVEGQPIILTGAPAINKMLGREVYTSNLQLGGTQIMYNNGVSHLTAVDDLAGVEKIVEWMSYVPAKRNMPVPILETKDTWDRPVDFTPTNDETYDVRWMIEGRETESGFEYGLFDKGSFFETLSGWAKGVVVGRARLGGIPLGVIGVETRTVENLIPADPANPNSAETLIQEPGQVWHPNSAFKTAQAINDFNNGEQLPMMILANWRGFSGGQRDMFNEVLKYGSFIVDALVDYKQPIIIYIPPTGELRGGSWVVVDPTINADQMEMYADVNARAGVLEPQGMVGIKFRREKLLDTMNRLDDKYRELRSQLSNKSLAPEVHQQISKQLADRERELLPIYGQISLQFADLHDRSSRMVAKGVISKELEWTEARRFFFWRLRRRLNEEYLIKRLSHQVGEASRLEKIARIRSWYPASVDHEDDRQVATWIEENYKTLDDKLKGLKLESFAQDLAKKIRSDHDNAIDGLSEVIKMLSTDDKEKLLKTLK
# [5] = system: C. krusei ATCC 6258; test: Anti-Fungal Activity Assay (broth microtiter MIC), C. krusei; format: cell-based, Candida krusei; settings: Pichia kudriavzevii, ATCC6258, 48 h, 3 replicates; MIC recorded at 48 h; read-out: MIC C. krusei ATCC 6258
# In short: as §1
SMILES,MIC [1] [µg/mL],MIC [2] [µg/mL],IC50 [3] [nM],IC50 [4] [nM],MIC [5] [µg/mL]
"COc1ccc(F)cc1[C@H](Cn1c(=O)n([C@H]2CCN(C)C2=O)c(=O)c2c(C)c(-n3nccn3)sc21)OC [Compound I-168, 1-((R)-2-(5-fluoro-2-methoxyphenyl)-2-methoxyethyl)-5-methyl-3-((S)-1-methyl-2-oxopyrrolidin-3-yl)-6-(2H-1,2,3-triazol-2-yl)thieno[2,3-d]pyrimidine-2,4(1H,3H)-dione]",2.1 to 4,2.1 to 4,10 to 100,2 to 10,2.1 to 4
"COc1ccccc1[C@@H](O)Cn1c(=O)n([C@@H]2CCN(C)C2=O)c(=O)c2c(C)c(-n3nccn3)sc21 [Compound I-169, 1-((R)-2-hydroxy-2-(2-methoxyphenyl)ethyl)-5-methyl-3-((R)-1-methyl-2-oxopyrrolidin-3-yl)-6-(2H-1,2,3-triazol-2-yl)thieno[2,3-d]pyrimidine-2,4(1H,3H)-dione]",2.1 to 4,2.1 to 4,10 to 100,0.7 to 2,2.1 to 4
"COc1ccc(F)cc1[C@H](Cn1c(=O)n([C@@H]2CCN(C)C2=O)c(=O)c2c(C)c(-n3nccn3)sc21)OC [Compound I-170, 1-((R)-2-(5-fluoro-2-methoxyphenyl)-2-methoxyethyl)-5-methyl-3-((R)-1-methyl-2-oxopyrrolidin-3-yl)-6-(2H-1,2,3-triazol-2-yl)thieno[2,3-d]pyrimidine-2,4(1H,3H)-dione]",2.1 to 4,2.1 to 4,10 to 100,0.7 to 2,2.1 to 4
"COc1ccccc1[C@H](Cn1c(=O)n([C@H]2CCN(C)C2=O)c(=O)c2c(C)c(-n3nccn3)sc21)OC [Compound I-171, 1-((R)-2-methoxy-2-(2-methoxyphenyl)ethyl)-5-methyl-3-((S)-1-methyl-2-oxopyrrolidin-3-yl)-6-(2H-1,2,3-triazol-2-yl)thieno[2,3-d]pyrimidine-2,4(1H,3H)-dione]",2.1 to 4,2.1 to 4,10 to 100,2 to 10,2.1 to 4
"COc1ccccc1[C@H](Cn1c(=O)n([C@@H]2CCN(C)C2=O)c(=O)c2c(C)c(-n3nccn3)sc21)OC [Compound I-172, 1-((R)-2-methoxy-2-(2-methoxyphenyl)ethyl)-5-methyl-3-((R)-1-methyl-2-oxopyrrolidin-3-yl)-6-(2H-1,2,3-triazol-2-yl)thieno[2,3-d]pyrimidine-2,4(1H,3H)-dione]",2.1 to 4,2.1 to 4,10 to 100,0.7 to 2,2.1 to 4
"COc1ccc(F)cc1[C@H](Cn1c(=O)n([C@H]2CCCNC2=O)c(=O)c2c(C)c(-n3nccn3)sc21)O[C@H]1CC[C@@H](O)CC1 [Compound I-173, 1-((R)-2-(S-fluoro-2-methoxyphenyl)-2-(((1s, 4S)-4-hydroxycyclohexyl)oxy)ethyl)-5-methyl-3-((S)-2-oxopiperidin-3-yl)-6-(2H-1,2,3-triazol-2-yl)thieno[2,3-d]pyrimidine-2,4(1H, 3H)-dione]",2.1 to 4,2.1 to 4,2 to 10,0.7 to 2,2.1 to 4
"COc1ccc(F)cc1[C@H](Cn1c(=O)n([C@@H]2CCCNC2=O)c(=O)c2c(C)c(-n3nccn3)sc21)O[C@H]1CC[C@@H](O)CC1 [Compound I-174, 1-((R)-2-(5-fluoro-2-methoxyphenyl)-2-(((1 s, 4S)-4-hydroxycyclohexyl)oxy)ethyl)-5-methyl-3-((R)-2-oxopiperidin-3-yl)-6-(2H-1,2,3-triazol-2-yl)thieno[2,3-d]pyrimidine-2,4(1H,3H)-dione]",0.25 to 1,1.1 to 2,2 to 10,0.7 to 2,0.25 to 1
"COc1ccc(F)cc1[C@H](Cn1c(=O)n([C@@H]2CCN(C)C2=O)c(=O)c2c(C)c(-n3nccn3)sc21)OCCC(=O)O [Compound I-175, 3-((R)-1-(5-fluoro-2-methoxyphenyl)-2-(5-methyl-3-((R)-1-methyl-2-oxopyrrolidin-3-yl)-2,4-dioxo-6-(2H-1,2,3-triazol-2-yl)-3,4-dihydro-thieno[2,3-d]pyrimidin-1(2H)-yl)ethoxy)propanoic acid]",2.1 to 4,2.1 to 4,10 to 100,0.7 to 2,2.1 to 4
"COc1ccc(F)cc1[C@H](Cn1c(=O)n([C@H]2CCN(C)C2=O)c(=O)c2c(C)c(-n3nccn3)sc21)OCCC(=O)O [Compound I-176, 3-((R)-1-(5-fluoro-2-methoxyphenyl)-2-(5-methyl-3-((S)-1-methyl-2-oxopyrrolidin-3-yl)-2,4-dioxo-6-(2H-1,2,3-triazol-2-yl)-3,4-dihydrothieno[2,3-d]pyrimidin-1 (2H)-yl)ethoxy)propanoic acid]",2.1 to 4,2.1 to 4,10 to 100,2 to 10,2.1 to 4
